According to PMC12730265, “Combinatorial Antimicrobial Effects of Imidazolium-Based Ionic Liquids and Antifungals on Model Fungal Organisms” (Biomolecules, 2025):
Like-named read-outs stand apart in the source and are kept apart here.

Legend:
Assay type in all cases: cell-based
S. pombe = experiment: MIC50 by microbroth dilution; conditions: Schizosaccharomyces pombe
Experimental: (§1) A single colony was picked from each streak to prepare overnight in 5 mL fresh YPD broth and placed into a tilted rotating incubator set at 30 °C and 40 rpm overnight. After ~16–20 h, a fresh dilution in media (1:200) was made and used for the experiment. […] Finally, diluted culture was added to each well of a sterile 96-well plate containing serially diluted aliquots of each RTIL to a total volume of 100 µL. The plate was incubated at 30 °C overnight with shaking for 24 and 48 h. At both timepoints, the yeast was manually resuspended in the plate by pipetting and we measured the OD600 using a Spectramax M5 multimode plate reader (Molecular Devices, San Jose, CA, USA).
(§2) The four species of yeast tested included three common lab strains of non-pathogenic yeast strains, S. boulardii, S. cerevisiae, and S. pombe, and one common human pathogen, C. albicans.

S. cerevisiae [1] = experiment: MIC50 by microbroth dilution; conditions: Saccharomyces cerevisiae
Experimental: as §1, §2

C. albicans [2] = experiment: MIC50 by microbroth dilution; conditions: Candida albicans, 48 h
Experimental: as §1, §2

S. boulardii = experiment: MIC50 by microbroth dilution; conditions: Saccharomyces cerevisiae
Experimental: as §1, §2

S. cerevisiae [3] = experiment: Kirby–Bauer disk diffusion assay on IL-containing YPD plates; conditions: 100 = no growth on plate
Experimental: (§3) Assessment of fungal growth on YPD plates with AFs + ILs served as an indicator for the combined efficacy of treatment of ILs and AFs. YPD agar plates were made with addition of increasing concentrations of [HMIM]Cl at 0, 2.5, 6.25, and 25 mM or [OMIM]Cl at 0, 0.25, 0.625, and 2.5 mM. Plates solidified and dried on bench for 24 h before use. IN total, 400 μL of S. cerevisiae or C. albicans liquid culture at mid-log phase OD600 0.5 was spread using sterile glass beads to achieve even distribution. Following addition of culture, the plates were allowed to dry for 30 min before the addition of antifungal disks. Antifungal-infused disks were prepared using the stock solutions of solubilized antibiotics; 15 μL of each of the 4 azole antifungals at stock concentrations was pipetted onto a sterile 6 mm cellulose disk (BD). […] After plate drying was complete, sterile forceps were used to transfer the disks to the media, and the plate was grown upright in an incubator overnight at 30 °C. The following day, photographs were taken of the plates to visualize the zone of inhibition (ZOI) created by the combined treatment. Adobe Illustrator 2023 CC was used to perform digital measurements of ZOI diameters.
(§4) To assess the potential for combinatorial effects of ILs and AFs in yeast, Kirby–Bauer disk diffusion assays were performed for C. albicans and S. cerevisiae for [HMIM]Cl and [OMIM]Cl with all four AFs. […] The addition of 6 mm cellulose disks infused with equal volumes of solubilized AFs to the plates occurred after plating of C. albicans or S. cerevisiae, allowing for growth for 48 h at 23 °C, at which point the plates were evaluated for the establishment of zones of inhibition (ZOI). Digital pictures were acquired of all plates, and measurements of ZOI diameter were performed digitally as described in the Methods. […] With progressively increasing amounts of both [HMIM]Cl and [OMIM]Cl, ZOIs increased for all Afs, including Fluconazole and Itraconazole, which appear to be ineffective without IL in the Kirby–Bauer disk assay. Experiments were performed in triplicate and ZOIs were measured for all plates.
Similar experiments testing the combinatorial effects of [HMIM]Cl or [OMIM]Cl were performed on S. cerevisiae using Kirby–Bauer disk assays and quantified for changes in ZOI (Appendix Figure A1). ZOI measurements (mm) from both C. albicans and S. cerevisiae were compiled, and the averages are shown numerically as well as with shading and plotted in Figure 3. […] Finally, at intermediate concentrations of both [HMIM]Cl and [OMIM]Cl, a combinatorial effect of IL + AF was evident for all four AFs in S. cerevisiae, similar to observations in C. albicans.

C. albicans [4] = experiment: as above; conditions: for inhibition of C. albicans growth around disk: absence of added IL
Experimental: as §3, §4

[5] = 50% growth after 48 h in YPD media, OD600, read-out: MIC50

| Compound | MIC50 (S. pombe; [5]) | MIC50 (S. cerevisiae [1]; [5]) | MIC50 (C. albicans [2]; [5]) | MIC50 (S. boulardii; [5]) | Zone of inhibition (ZOI) diameter (S. cerevisiae [3]; [HMIM]Cl 0 mM in plate) | Zone of inhibition (ZOI) diameter (S. cerevisiae [3]; [HMIM]Cl 2.5 mM in plate) | Zone of inhibition (ZOI) diameter (S. cerevisiae [3]; [HMIM]Cl 6.25 mM in plate) | Zone of inhibition (ZOI) diameter (S. cerevisiae [3]; [HMIM]Cl 25 mM in plate) | Zone of inhibition (ZOI) diameter (S. cerevisiae [3]; [OMIM]Cl 0 M in plate) | Zone of inhibition (ZOI) diameter (S. cerevisiae [3]; [OMIM]Cl 0.25 mM in plate) | Zone of inhibition (ZOI) diameter (S. cerevisiae [3]; [OMIM]Cl 0.625 mM in plate) | Zone of inhibition (ZOI) diameter (S. cerevisiae [3]; [OMIM]Cl 2.5 mM in plate) | Zone of inhibition (ZOI) diameter (C. albicans [4]; [HMIM]Cl 0 mM in plate) | Zone of inhibition (ZOI) diameter (C. albicans [4]; [HMIM]Cl 2.5 mM in plate) | Zone of inhibition (ZOI) diameter (C. albicans [4]; [HMIM]Cl 6.25 mM in plate) | Zone of inhibition (ZOI) diameter (C. albicans [4]; [HMIM]Cl 25 mM in plate) | Zone of inhibition (ZOI) diameter (C. albicans [4]; [OMIM]Cl 0 M in plate) | Zone of inhibition (ZOI) diameter (C. albicans [4]; [OMIM]Cl 0.25 mM in plate) | Zone of inhibition (ZOI) diameter (C. albicans [4]; [OMIM]Cl 0.625 mM in plate) | Zone of inhibition (ZOI) diameter (C. albicans [4]; [OMIM]Cl 2.5 mM in plate) | other results |
| --- | --- | --- | --- | --- | --- | --- | --- | --- | --- | --- | --- | --- | --- | --- | --- | --- | --- | --- | --- | --- | --- |
| OC(Cn1cncn1)(Cn1cncn1)c1ccc(F)cc1F [Fluconazole] | 4 µg/mL | 4 µg/mL | 8 µg/mL | 4 µg/mL | 34 mm | 36 mm | 43.33 mm | 100 mm | 34 mm | 37.33 mm | 69 mm | 100 mm | 0 mm | 0 mm | 31.33 mm | 47.33 mm | 0 mm | 0 mm | 29.33 mm | 70.33 mm | inhibition of C. albicans growth around disk (C. albicans [4]): no inhibition |
| CCC(C)n1ncn(-c2ccc(N3CCN(c4ccc(OCC5COC(Cn6cncn6)(c6ccc(Cl)cc6Cl)O5)cc4)CC3)cc2)c1=O (stereo not shown) [Itraconazole] | 0.5 µg/mL | 0.5 µg/mL | 1 µg/mL | 0.5 µg/mL | 8 mm | 9.33 mm | 14 mm | 100 mm | 8 mm | 9 mm | 21.67 mm | 100 mm | 0 mm | 0 mm | 12.67 mm | 16 mm | 0 mm | 0 mm | 16.33 mm | 26.33 mm | inhibition of C. albicans growth around disk (C. albicans [4]): no inhibition |
| CC(=O)N1CCN(c2ccc(OCC3COC(Cn4ccnc4)(c4ccc(Cl)cc4Cl)O3)cc2)CC1 (stereo not shown) [Ketoconazole] | 0.5 µg/mL | 0.5 µg/mL | 1 µg/mL | 0.5 µg/mL | 25 mm | 27.33 mm | 63 mm | 100 mm | 25 mm | 29.67 mm | 57.33 mm | 100 mm | 13.67 mm | 17 mm | 29 mm | 47.67 mm | 13.67 mm | 19.33 mm | 28 mm | 57.33 mm | inhibition of C. albicans growth around disk (C. albicans [4]): minimal inhibition |
| CCn1cc[n+](C)c1 [[EMIM]Cl, 1-ethyl-3-methylimidazolium chloride] | – | – | – | – | – | – | – | – | – | – | – | – | – | – | – | – | – | – | – | – | MIC50 (S. pombe; 48 h): 50 mM; MIC50 (S. cerevisiae [1]; 48 h): 50 mM; MIC50 (C. albicans [2]): > 100 mM; MIC50 (S. boulardii; 48 h): 25 mM |
